From US7332615B2, “Hydrophilic analogs of 4,8-dihydrobenzodithiophene-4,8-diones as anticancer agents” (Industrial Technology Research Institute, priority 2004, dated 2008)
Where two headings read alike, the source gives them in different places.

Tests used:
[1] = test system: prostate cancer (PC-3); assay: Cytotoxicity Assays Method C, PC-3; format: cell-based; details: for IC50: 72 h, read-out: IC50 PC-3; for activity against the androgen-insensitive prostate cancer cell line PC-3 (in words): PC-3, summary of Table 3
[2] = test system: ileocecal carcinoma (HCT-8); assay: Cytotoxicity Assays Method C, HCT-8; format: cell-based; details: Homo sapiens, HCT-8, 72 h, read-out: IC50 HCT-8
[3] = test system: Human promyeloid leukemia HL-60 cells; assay: Cytotoxicity Assays Method B (MTT proliferation assay), HL-60; format: cell-based; details: Homo sapiens, read-out: IC50 (concentration at which 50% of the cells are inhibited from growing)
Method: Cytotoxicity Assays Method B (HL-60) [H. M. Chen et al. Chin. Pharm. J. 53, 157-167 (2001)]
Human promyeloid leukemia HL-60 cells were obtained from the American Type
Culture Collection (Manassas, Va., USA) and the Culture Collection and Research Center(CCRC) (Tai wan, ROC). Human promyeloid leukemia HL-60 cells were cultured in suspension in RPMI-1640 medium (GIBCO, Grand Is land, USA), containing 10% fetal bovine se rum (GIBCO, Grand Is land, USA), 100 unit/mL penicillin, […] streptomycin and 1% L-glutamine at 37° C. in a humidified atmosphere of 5% CO2 in air. Cells were split every day to maintain the cell numbers between 2−5×10^5/mL. Cell numbers were assessed by the standard procedure of leukocyte counting using a hemocytometer and cell viability was checked by the ability of cells to exclude Trypan blue.
Cellular proliferation was determined by the MTT [3-(4,5-dimethylthiazol-2-yl)-2,5-diphenyltetrazolium bromide] as say. Briefly, […] of MTT (5 mg/mL) was added to each well of 96-well plates containing 1×10^5 cells after treatment with different concentrations of samples for 4 days. The reaction was stopped after 2 h by adding […] of 0.04 N HCl in isopropanol and the OD570 nm was determined by a minicolorimetric reader. Each concentration treatment was performed in triplicate.

[4] = test system: lung carcinoma (A-549); assay: Cytotoxicity Assays Method C, A-549; format: cell-based; details: Homo sapiens, A549, 72 h, read-out: IC50 A549
[5] = test system: p-gp-expressing epidermoid carcinoma of the nasopharynx (KB-VIN); assay: Cytotoxicity Assays Method C, KB-VIN; format: cell-based; details: for IC50: 50% reduction in cell number after 72 hr of incubation; for activity against the MDR cell line KB-VIN (in words): summary of Table 3
From the text: Cytotoxicity Assays Method C (KB, KB-VIN, AS49, HCT-8, PC-3) [K. H. Lee et. al. Planta Med. 54, 308-312 (1998), Monk A et. al. J. Natl. Cancer Inst. 83, 757-766 (1991).] The cell lines included epidermoid caninoma of the nasopharynx (KB), p-gp-expressing epidermoid caninoma of the nasopharynx (KB-VIN), lung carcinoma (A-549), ileocecal carinoma (HCT-8) and prostate cancer (PC-3) cell lines.

[6] = test system: epidermoid carcinoma of the nasopharynx (KB); assay: Cytotoxicity Assays Method C, KB; format: cell-based; details: 72 h, read-out: IC50 KB
[7] = test system: NCI-H460; assay: Cytotoxicity Assays Method A (alamarBlue anti-proliferative assay), NCI-H460; format: cell-based; details: for IC50 / CC50: Homo sapiens; for IC50: NCI-H460, 72 h, read-out: IC50 (50% Inhibition Concentration); for CC50 / TGI (Total growth Inhibition): NCI-H460, 72-hour incubation, alamarBlue; for CC50: read-out: LC50 (50% Lethal Concentration)
From the text: (§1) Cytotoxicity Assays Method A (HUVEC, MCF-7, HT-29, Hep 3B and NCl-H460) [S. A. Ahmed, R. M. Gogal Jr., and J. E. Walsh, Journal of Immunological Methods 170: 211-224, (1994): M. R. Boyd, Status of the NCl preclinical antitumor drug discovery screen. (Published by J. B. Lippincoft Company, Philadelphia, Pa. 19105, USA) Principles & Practices of Oncology Updates 3 # 10: 1-12, (1989); M. R. Boyd, et al. Data display and analysis strategies for the NCl disease-oriented in vitro antitumor drug screen. In: Cytotoxic anti-cancer drugs: models and concepts for drug discovery and development. Boston: Kluwer Academic, Pages; 11-34, (1992)]
(§2) The test compounds were dissolved in 100% DMSO and then diluted with sterile distilled water to obtain initial working solutions of 20000, 2000, 200, 20 and 2 μM in 80% DMSO. A 200 fold dilution was further made in culture media to generate final assay concentrations of 100, 10, 1, 0.1 and 0.01 μM in 0.4% DMSO.
(§3) Aliquots of 100 μl of cell suspension (about 1.5-3.0×10^3/well) were placed in 96-well microtiter plates in an atmosphere of 5% CO2 at 37° C. After 24 hours, 100 μl of growth medium and 1 μl of test solution or vehicle (80% DMSO) were added respectively per well in duplicate for an additional 72-hour incubation. Thus, the final concentration of DMSO was 0.4%. The test compounds, IIa-1, IIb-1 and VII-1 were evaluated at concentrations of 100, 10, 1, 0.1 and 0.01 μM. At the end of incubation, 20 μl of alamarBlue 90% reagent was added to each well for another 6-hour incubation before detection of cell viability by fluorescent intensity. Fluorescent intensity was measured using a Spectraflour Plus plate reader with excitation at 530 nm and emission at 590 nm.
(§4) The measured results was calculated by the following formula: PG(%)=100×(Mean Ftest−Mean Ftime0)/(Mean Fctrl−Mean Ftime0)] If(Mean Ftest−Mean Ftime0)<0, then PG(%)=100×(Mean Ftest−Mean Ftime0)/(Mean Ftime0−Mean Fblank) wherein PG represents percent growth;
(§5) A decrease of 50% or more (≧50%) in fluorescent intensity relative to the vehicle-treated control indicates significant cytostatic or cytotoxic activity, and semi-quantitative values for IC50, TGI and LC50 were then determined by nonlinear regression using GraphPad Prism (GraphPad Software, USA).
(§6) IC50 (50% Inhibition Concentration); Test compound concentration where the increase from times in the number or mass of treated cells was only 50% as much as the corresponding increase in the vehicle-control at the end of experiment.
(§7) TGI (Total Growth Inhibition): Test compound concentration where the number or mass of treated cells at the end of experiment was equal to that at time0.
(§8) LC50 (50% Lethal Concentration): Test compound concentration where the number or mass of treated cells at the end of experiment was half that at time.
(§9) The assays were used to detect changes in cell proliferation based on the ability of viable cells to cause alamarBlue to change from its oxidized to a reduced form. With the results obtained from the alamarBlue reaction, cell proliferation can be quantified and metabolic activity of viable cell can be examined.
(§10) The succinate derivatives of compounds IIa-1, IIb-1 and VII-1 were tested for possible effect on the proliferation of four human tumor cell lines ˜MCF-7 (breast), HT-29 (colon), Hep3B (liver), and NCl—H 460 (lung) as well as one human umbilical vein endothelial cell (HUVEC) at assay concentration from 0.01 to 100 μM, through serial 10-fold dilution.

[8] = Cytotoxicity Assays Method A (alamarBlue anti-proliferative assay), HUVEC; format: cell-based; details: human, HUVEC (human umbilical vein endothelial cells), 72-hour incubation, alamarBlue
From the text: as §1, §2, §3, §4, §5, §6, §7, §8, §9, §10

[9] = test system: HUVEC; assay: as above; format: cell-based; details: for TGI (Total growth Inhibition): 72-hour incubation, alamarBlue; for IC50: Homo sapiens, 72 h, read-out: IC50 (50% Inhibition Concentration)
From the text: as §1, §2, §3, §4, §5, §6, §7, §8, §9, §10

[10] = test system: MCF-7; assay: Cytotoxicity Assays Method A (alamarBlue anti-proliferative assay), MCF-7; format: cell-based; details: for IC50 / CC50: Homo sapiens; for IC50: MCF7, 72 h, read-out: IC50 (50% Inhibition Concentration); for CC50: MCF7, read-out: LC50 (50% Lethal Concentration); for CC50 / TGI (Total growth Inhibition): MCF-7, 72-hour incubation, alamarBlue; for cytotoxicity against MCF-7 (in words): MCF-7, summary of Table 1
From the text: as §1, §2, §3, §4, §5, §6, §7, §8, §9, §10

[11] = test system: HT-29; assay: Cytotoxicity Assays Method A (alamarBlue anti-proliferative assay), HT-29; format: cell-based; details: for TGI (Total growth Inhibition) / LC50 (50% lethal concentration): HT-29, 72-hour incubation, alamarBlue; for IC50 / LC50 (50% lethal concentration): Homo sapiens; for IC50: HT-29, 72 h, read-out: IC50 (50% Inhibition Concentration)
From the text: as §1, §2, §3, §4, §5, §6, §7, §8, §9, §10

[12] = test system: Hep 3B; assay: Cytotoxicity Assays Method A (alamarBlue anti-proliferative assay), Hep 3B; format: cell-based; details: for cytotoxicity against Hep3B (in words): summary of Table 1; for TGI (Total growth Inhibition) / CC50: Hep-3B, 72-hour incubation, alamarBlue; for IC50 / CC50: Homo sapiens; for cytotoxicity against Hep3B (in words) / IC50 / CC50: Hep3B; for IC50: 72 h, read-out: IC50 (50% Inhibition Concentration); for CC50: read-out: LC50 (50% Lethal Concentration)
From the text: as §1, §2, §3, §4, §5, §6, §7, §8, §9, §10

| Compound | IC50 [1] [nM] | IC50 [2] [nM] | IC50 [4] [nM] | IC50 ([5]; Homo sapiens, KBVIN, 72 h) [nM] | IC50 [6] [nM] | activity against the androgen-insensitive prostate cancer cell line PC-3 (in words) [1] | IC50 [7] [nM] | CC50 [7] [nM] | TGI (Total growth Inhibition) [7] [nM] | LC50 (50% lethal concentration) at 72 h [8] [nM] | TGI (Total growth Inhibition) [9] [nM] | IC50 [9] [nM] | IC50 [10] [nM] | CC50 [10] [nM] | TGI (Total growth Inhibition) [10] [nM] | cytotoxicity against MCF-7 (in words) [10] | IC50 ([3]; HL-60, 96 h) [nM] | TGI (Total growth Inhibition) [11] [nM] | IC50 [11] [nM] | LC50 (50% lethal concentration) [11] [nM] | other results |
| --- | --- | --- | --- | --- | --- | --- | --- | --- | --- | --- | --- | --- | --- | --- | --- | --- | --- | --- | --- | --- | --- |
| O=C(O)CCCC(=O)OCc1cc2c(s1)C(=O)c1sccc1C2=O [IIa-2, Mono-[1-(4,8-dioxo-4,8-dihydrobenzo[1,2-b:5,4-b′]dithiophen-2-yl)-methyl]pentanedioate] | 750 | 1660 | 2080 | 1390 | 2220 |  |  |  |  |  |  |  |  |  |  |  |  |  |  |  | melting point: 220 °C (dec.); IC50 ([3]; 96 h, HL-60, MTT, treatment for 4 days): 700 nM |
| CC(OC(=O)CCC(=O)O)c1cc2c(s1)C(=O)c1sccc1C2=O (stereo not shown) [IIb-1, Mono-[1-(4,8-dioxo-4,8-dihydrobenzo[1,2-b:5,4-b′]dithiophen-2-yl)-ethyl]succinate] | 220 | 910 | 580 | 250 | 470 | potent activity | 640 | 2100 | 1200 | 89000 | 31000 | 11000 | 820 | 27000 | 4700 | significant activity | 260 | 2000 | 4300 | 89000 | cytotoxicity against Hep3B (in words) [12]: significant activity; TGI (Total growth Inhibition) [12]: 1800 nM; IC50 [12]: 1100 nM; CC50 [12]: 2900 nM; activity against the MDR cell line KB-VIN (in words) [5]: potent activity |
| CC(OC(=O)CCC(=O)O)c1cc2c(s1)C(=O)c1ccsc1C2=O (stereo not shown) [VII-1, Mono-[1-(4,8-dioxo-4,8-dihydroxybenzo[1,2-b;4,5-b′]dithiophen-2-yl)-ethyl]succinate] | 160 | 420 | 470 |  | 190 | potent activity | 410 | 3000 | 1100 | > 100000 | 57000 | 11000 | 960 | 31000 | 5500 | significant cytotoxicity | 260 | 38000 | 4500 | > 100000 | activity against HT-29 (in words) ([11]; HT-29, summary of Table 1): moderate activity; cytotoxicity against Hep3B (in words) [12]: significant cytotoxicity; TGI (Total growth Inhibition) [12]: 1900 nM; IC50 [12]: 1000 nM; CC50 [12]: 3400 nM; IC50 [5]: 220 nM; activity against the MDR cell line KB-VIN (in words) [5]: potent activity |
